Assays:
[1] = test system: adult patients with cystic fibrosis; experiment: EMPIRE-CF Phase II randomized placebo-controlled trial: pulmonary exacerbations; type: in vivo, human; conditions: for adjusted mean (95% CI) annualized pulmonary exacerbation rate: all lung disease phenotypes; for adjusted mean (95% CI) annualized pulmonary exacerbation rate / proportion of patients who did not experience a pulmonary exacerbation during the study period: 48 weeks; for patients who did not have a pulmonary exacerbation during the study: baseline FEV1pp>75% (mild disease)
Text: EMPIRE-CF was a Phase II multicenter, randomized, double-blind, placebo-controlled, parallel-group study to evaluate the efficacy and safety of acebilustat in adult patients with CF (NCT02443688). The study consisted of a 48-week treatment period and follow-up visit 4 weeks after treatment completion. Screening visits occurred up to 21 days prior to the first study drug dose (FIG. 2).
Patients were enrolled from 69 centers in the USA, Canada, and Europe. All centers were experienced in CF care and the conduct of clinical trials. In brief, adult women and men 18-30 years old with a documented diagnosis of CF, an FEV1pp≥50% at screening and at least one pulmonary exacerbation in the previous year were enrolled. Baseline demographics are presented in the section below.
Patients were randomized 1:1:1 to receive either once-daily oral acebilustat 50 mg or 100 mg (Celtaxsys, Atlanta, GA, USA), or placebo supplied as capsules. The two acebilustat doses were selected based on the levels of reduction of serum LTB4 production seen in Phase I studies.
Pulmonary exacerbations were defined as the requirement for oral, inhaled or intravenous antibiotics for four or more signs or symptoms according to the modified Fuch's criteria (change in sputum; new or increased hemoptysis; increased cough; increased dyspnea; malaise, fatigue or lethargy; temperature >38° C.; anorexia or weight loss; sinus pain or tenderness; change in sinus discharge; change in physical examination of the chest; ≥10% absolute decrease in FEV1pp from the previously recorded value; radiographic changes indicative of pulmonary infection) [Fuchs et al., 1994], referred collectively (antibiotics plus the four or more signs and symptoms) as expanded Fuchs criteria. The date the pulmonary exacerbation began was defined as the first day of antibiotic use.
Pulmonary exacerbations were analyzed both as the time to first pulmonary exacerbation and the rate of pulmonary exacerbations. The time to first protocol defined-pulmonary exacerbation were analyzed using a Cox proportional hazards model. The number of protocol-defined pulmonary exacerbations reported through the Week 48/Early Termination visit were annualized (where a year was defined as 52 weeks) analyzed using a negative binomial regression. The two active doses were compared to placebo individually as well as pooled together using a contrast statement similar to that used for the primary analysis. Point estimates, standard errors, and 95% CIs for the mean of number of pulmonary exacerbations were presented. The difference in means between each CTX-4430 group from placebo were presented along with standard errors and 95% CIs. Spirometry-based endpoints were analyzed using the same methods as the primary endpoint. Analyses of sputum DNA and elastase and serum high-sensitivity C-reactive protein were based upon descriptive statistics by treatment group.
The annual rate of pulmonary exacerbations was calculated by standard methods for each treatment group.

[2] = Phase I studies; cited from earlier work
[3] = 100 mg dose, baseline FEV1pp>75%, FAP
[4] = FEV1pp greater than 75 and concomitant CFTR modulator therapy
[5] = FEV1pp>75 at baseline, 100 mg dose
[6] = acebilustat-treated patients overall, analysis population not given
[7] = baseline FEV1pp>75%, FAP, 50 mg
[8] = baseline FEV1pp>75%, FAP, 100 mg
[9] = concomitant CFTR modulator therapy, 100 mg dose

O=C(O)c1ccc(CN2C[C@@H]3C[C@H]2CN3Cc2ccc(Oc3ccc(-c4ncco4)cc3)cc2)cc1 [acebilustat, 4-{[(1S,4S)-5-({4-[4-oxazol-2-yl-phenoxy]phenyl}methyl)-2,5-diazabicyclo[2.2.1]heptan-2-yl]methyl}benzoic acid]
rate of pulmonary exacerbations requiring hospitalization as compared to placebo [1, 3]: lower rate | rate of pulmonary exacerbations requiring intravenous antibiotics as compared to placebo [1, 3]: lower the rate | Annualized Rate of Pulmonary Exacerbation (Adjusted Mean) ([1]; Baseline ppFEV1 >60, 50 mg): 1.44 | Annualized Rate of Pulmonary Exacerbation, % difference from Placebo ([1]; Baseline ppFEV1 >60, 50 mg): −2% | Annualized Rate of Pulmonary Exacerbation (Adjusted Mean) ([1]; Baseline ppFEV1 >60, 100 mg): 1.27 | Annualized Rate of Pulmonary Exacerbation, % difference from Placebo ([1]; Baseline ppFEV1 >60, 100 mg): −14% | Annualized Rate of Pulmonary Exacerbation (Adjusted Mean) ([1]; Baseline ppFEV1 >65, 50 mg): 1.25 | Annualized Rate of Pulmonary Exacerbation, % difference from Placebo ([1]; Baseline ppFEV1 >65, 50 mg): −14% | Annualized Rate of Pulmonary Exacerbation (Adjusted Mean) ([1]; Baseline ppFEV1 >65, 100 mg): 1.05 | Annualized Rate of Pulmonary Exacerbation, % difference from Placebo ([1]; Baseline ppFEV1 >65, 100 mg): −28% | Annualized Rate of Pulmonary Exacerbation (Adjusted Mean) ([1]; Baseline ppFEV1 >68, 50 mg): 1.12 | Annualized Rate of Pulmonary Exacerbation, % difference from Placebo ([1]; Baseline ppFEV1 >68, 50 mg): −7% | Annualized Rate of Pulmonary Exacerbation (Adjusted Mean) ([1]; Baseline ppFEV1 >68, 100 mg): 0.81 | Annualized Rate of Pulmonary Exacerbation, % difference from Placebo ([1]; Baseline ppFEV1 >68, 100 mg): −33% | Annualized Rate of Pulmonary Exacerbation (Adjusted Mean) ([1]; Baseline ppFEV1 >70, 50 mg): 1.2 | Annualized Rate of Pulmonary Exacerbation, % difference from Placebo ([1]; Baseline ppFEV1 >70, 50 mg): −22% | Annualized Rate of Pulmonary Exacerbation (Adjusted Mean) ([1]; Baseline ppFEV1 >70, 100 mg): 0.92 | Annualized Rate of Pulmonary Exacerbation, % difference from Placebo ([1]; Baseline ppFEV1 >70, 100 mg): −40% | Annualized Rate of Pulmonary Exacerbation (Adjusted Mean) ([1]; Baseline ppFEV1 >75, 50 mg): 1.28 | Annualized Rate of Pulmonary Exacerbation, % difference from Placebo ([1]; Baseline ppFEV1 >75, 50 mg): −20% | Annualized Rate of Pulmonary Exacerbation (Adjusted Mean) ([1]; Baseline ppFEV1 >75, 100 mg): 0.84 | Annualized Rate of Pulmonary Exacerbation, % difference from Placebo ([1]; Baseline ppFEV1 >75, 100 mg): −48% | time at which divergence in pulmonary exacerbation from placebo occurred ([1]; FAP and PP analysis): approximately 4 months | adjusted mean (95% CI) annualized pulmonary exacerbation rate ([1]; FAP, 50 mg once daily oral): 1.46 (1.13, 1.89) | adjusted mean (95% CI) annualized pulmonary exacerbation rate ([1]; FAP, 100 mg once daily oral): 1.57 (1.22, 2.02) | adjusted mean (95% CI) annualized pulmonary exacerbation rate ([1]; FAP, combined acebilustat groups): 1.51 (1.26, 1.81) | time to first pulmonary exacerbation, hazard ratio versus placebo (95% CI) ([1]; FAP, 50 mg): 0.86 (0.563, 1.308) | proportion of patients who did not experience a pulmonary exacerbation during the study period ([1]; FAP, 50 mg): 39% | time to first pulmonary exacerbation, hazard ratio versus placebo (95% CI) ([1]; FAP, 100 mg): 0.88 (0.576, 1.339) | proportion of patients who did not experience a pulmonary exacerbation during the study period ([1]; FAP, 100 mg): 38% | time to first pulmonary exacerbation, hazard ratio versus placebo (95% CI) ([1]; FAP, acebilustat combined group): 0.87 (0.605, 1.246) | proportion of patients who did not experience a pulmonary exacerbation during the study period ([1]; FAP, combined acebilustat dose group): 38% | response to acebilustat treatment (rate of exacerbations, hazard ratio) ([1]; FEV1 at or below 75% (≤75%)): did not exhibit the same level of response | decrease in the rate of pulmonary exacerbations versus placebo [1, 4]: 54% | higher proportion of patients exacerbation free at 48 weeks versus placebo [1, 4]: 165% | decrease in the rate of pulmonary exacerbations versus placebo ([1]; FEV1pp greater than 75 and concomitant CFTR modulator therapy, 100 mg dose): 65% | higher proportion of patients exacerbation free after 48 weeks of treatment versus placebo [1, 5]: 100% | reduction in PEx rate versus placebo [1, 5]: 48% | reduction in risk of experiencing first exacerbation versus placebo [1, 5]: 48% | more patients with no PEx during the study compared with placebo [1, 6]: 32% | reduced risk in progressing to first PEx versus placebo [1, 6]: 22% | reduction in PEx versus placebo [1, 6]: 18% | response to acebilustat treatment (rate of pulmonary exacerbations) ([1]; baseline FEV1pp at or below the median (≤68%)): did not exhibit the same level of response | annual rate of pulmonary exacerbations versus placebo ([1]; baseline FEV1pp higher than the median (>68%)): lower annual rate of pulmonary exacerbations versus placebo | patients who did not have a pulmonary exacerbation during the study ([1]; 50 mg): 48% | patients who did not have a pulmonary exacerbation during the study ([1]; 100 mg): 50% | patients who did not have a pulmonary exacerbation during the study ([1]; combined acebilustat group): 49% | adjusted mean (95% CI) annualized rate of pulmonary exacerbations [1, 7]: 1.28 (0.84, 1.96) | time to first pulmonary exacerbation, hazard ratio (95% CI) versus placebo [1, 7]: 0.62 (0.304, 1.274) | adjusted mean (95% CI) annualized rate of pulmonary exacerbations [1, 8]: 0.84 (0.49, 1.44) | time to first pulmonary exacerbation, hazard ratio (95% CI) versus placebo [1, 8]: 0.52 (0.245, 1.101) | time to first pulmonary exacerbation, hazard ratio (95% CI) versus placebo ([1]; baseline FEV1pp>75%, FAP, acebilustat combined group): 0.57 (0.307, 1.051) | adjusted mean (95% CI) annualized rate of pulmonary exacerbations ([1]; baseline FEV1pp>75%, FAP, combined acebilustat groups): 1.04 (0.74, 1.46) | reduction in rate of PEx versus CFTR modulators and placebo ([1]; concomitant CFTR modulator therapy, regardless of disease severity, 100 mg dose): 14% | higher proportion of patients with no exacerbations versus CFTR modulators and placebo [1, 9]: 51% | increased time to first exacerbation versus CFTR modulators and placebo [1, 9]: 27% | higher percentage of patients that were exacerbation free ([1]; patients off CFTR modulator therapy): about 15% | drug-related serious adverse events [2]: no drug-related serious AEs | tolerability [2]: well tolerated
